Patent US7582418B2, “Antimicrobial chelates” (Albion Laboratories, Inc., priority 2004, dated 2009)

Tests used:
Type in all cases: cell-based
[1] = system: Candida albicans; experiment: Zone inhibition assay (filter paper disc area diffusion); conditions: distance from edge of disc to growth; discs saturated with 100 mg/ml solution (antibiotic control discs 5-30 μg); 24 hours at 37° C.
Description: (§1) Two methods were used to examine whether an inhibitory effect from the zinc containing compounds was observable and if there was an inhibitory effect, whether the effect was bactericidal (bacteria-killing) or bacteriostatic (bacterial-inhibiting) in nature. In the first method, two Gram-positive bacteria strains (Staphlococcus aureus, Streptococcus pyogenes), two Gram-negative bacteria strains (Salmonella typhimerium, Eschrichia coli), and one common yeast strain (Candida albicans) were grown nutrient agar plates, except in the case of S. pyogenes which was grown on blood agar plates.
(§2) Zone inhibition assays were conducted with eighteen different samples in accordance with the methodology described by Maruzella, J. C. and Henry, P. A., J. Am. Pharm. Assoc. 47:894 (1958) for filter paper disc area diffusion. Sample solutions were prepared to approximate 100 mg/mL concentrations.
(§3) Organisms were grown for 24 hours at 37° C. on blood agar plates with the exception of Candida albicans which was grown in a standard methods agar (SMA) medium. Solutions of each sample were prepared using sterile DD water at a concentration of 100 mg/ml. Paper discs were saturated with solution from each sample and dried aseptically. […] Following drying of solution derived discs, all discs were placed on agar plates with each of the five different microorganisms.

[2] = system: Eschrichia coli; experiment: as above; conditions: distance from edge of disc to bacterial growth; discs saturated with 100 mg/ml solution (antibiotic control discs 5-30 μg); 24 hours at 37° C.
Description: as §1, §2, §3

[3] = system: Salmonella typhimerium; experiment: as above; conditions: distance from edge of disc to bacterial growth; discs saturated with 100 mg/ml solution (antibiotic control discs 5-30 μg); 24 hours at 37° C.
Description: as §1, §2, §3

[4] = system: Staphlococcus aureus; experiment: as above; conditions: distance from edge of disc to bacterial growth; discs saturated with 100 mg/ml solution (antibiotic control discs 5-30 μg); 24 hours at 37° C.
Description: as §1, §2, §3

[5] = system: Streptococcus pyogenes; experiment: as above; conditions: distance from edge of disc to bacterial growth; blood agar; discs saturated with 100 mg/ml solution (antibiotic control discs 5-30 μg); 24 hours at 37° C.
Description: as §1, §2, §3

[6] = system: Candida albicans; experiment: Turbidity assay (TSB tubes, plated out); design: key: no-growth (NG) which corresponds with excellent inhibitory activity; partial growth (PG) which corresponds with good inhibitory activity; complete growth (CG) which corresponds with little or no inhibitory activity; conditions: TSB tube with 1.0 mL sample solution (100 mg/mL) and 100 μL 24-hour culture; after 24 hours plated, incubated 24 hours
Description: (§4) In the second method, turbidity assays were conducted. Tryptic soy broth (TSB) tubes were inoculated with 1.0 mL of sample solutions (100 mg/mL) and 50 μL of 24-hour cultures of each microbe. In the case of C. albicans, 100 μL of 24-hour culture was used. After 24 hours, an aliquot from each tube was plated out onto nutrient media and incubated for 24 hours. Following incubation, colonies on each plate were observed and characterized as one of three categories: no-growth (NG) which corresponds with excellent inhibitory activity, partial growth (PG) which corresponds with good inhibitory activity, complete growth (CG) which corresponds with little or no inhibitory activity.
(§5) S. pyongenes, could not be grown in the solution, so the turbidity assay was not conducted for that microorganism. When the data from both zone inhibition (Table 2) and turbidity (Table 3) assays are compared, an indication of the inhibition activity may be evident.

[7] = system: Eschrichia coli; experiment: Turbidity assay (TSB tubes, plated out); design: key: no-growth (NG) which corresponds with excellent inhibitory activity; partial growth (PG) which corresponds with good inhibitory activity; complete growth (CG) which corresponds with little or no inhibitory activity; conditions: TSB tube with 1.0 mL sample solution (100 mg/mL) and 50 μL 24-hour culture; after 24 hours plated, incubated 24 hours
Description: as §4, §5

[8] = system: Staphlococcus aureus; experiment: Turbidity assay (TSB tubes, plated out); design: key: no-growth (NG) which corresponds with excellent inhibitory activity; partial growth (PG) which corresponds with good inhibitory activity; complete growth (CG) which corresponds with little or no inhibitory activity; conditions: TSB tube with 1.0 mL sample solution (100 mg/mL) and 50 μL 24-hour culture; after 24 hours plated, incubated 24 hours
Description: as §4, §5

| Molecule | inhibitory zone, Candida albicans [1] | inhibitory zone, Eschrichia coli [2] | inhibitory zone, Salmonella typhimerium [3] | inhibitory zone, Staphlococcus aureus [4] | inhibitory zone, Streptococcus pyogenes [5] | colony growth category, Candida albicans [6] | colony growth category, Eschrichia coli [7] | colony growth category, Staphlococcus aureus [8] |
| --- | --- | --- | --- | --- | --- | --- | --- | --- |
| [Cl-].[Cl-].[Zn+2] [Sample 1, Zinc Chloride] | 4.5 millimeters | 4 millimeters | 3.5 millimeters | 6 millimeters | 2.5 millimeters | PG | PG | PG |
| O=C([O-])CC(O)(CC(=O)[O-])C(=O)[O-].O=C([O-])CC(O)(CC(=O)[O-])C(=O)[O-].[Zn+2].[Zn+2].[Zn+2] [Sample 2, Zinc Citrate] | no activity | 1.5 millimeters | – | 1 millimeters | 3.5 millimeters | – | – | – |
| CC(=O)[O-].CC(=O)[O-].[Zn+2] [Sample 3, Zinc Acetate] | 2 millimeters | 3 millimeters | 3 millimeters | 2 millimeters | 3.5 millimeters | – | – | – |
| O=S(=O)([O-])[O-].[Zn+2] [Sample 4, Zinc Sulfate] | 2 millimeters | 3.5 millimeters | 3 millimeters | 3.7 millimeters | 2 millimeters | CG | CG | CG |
| NCC(=O)[O-].NCC(=O)[O-].[Zn+2] [Sample 5, Zinc Bis-Glycinate] | 0.5 millimeters | 3.5 millimeters | 3.5 millimeters | 3.5 millimeters | 4 millimeters | NG | NG | PG (1) |
| O=C([O-])CCCCC1CCSS1.O=C([O-])CCCCC1CCSS1.[Zn+2] (stereo not drawn) [Sample 6, Zinc Lipoate] | no activity | .5 millimeters | 2 millimeters | 1.5 millimeters | 1 millimeters | – | – | – |
| NC[C@@H]1O[C@H](O[C@H]2[C@@H](O)[C@H](O[C@@H]3[C@@H](O)[C@H](N)C[C@H](N)[C@H]3O[C@H]3O[C@H](CN)[C@@H](O)[C@H](O)[C@H]3N)O[C@@H]2CO)[C@H](N)[C@@H](O)[C@@H]1O [Sample 8, Neomycin] | no activity | 3 millimeters | 6 millimeters | 6 millimeters | 3 millimeters | – | – | – |
| O=C(O)c1cn(C2CC2)c2cc(N3CCNCC3)c(F)cc2c1=O [Sample 9, Ciproflaxicin] | no activity | 5 millimeters | 10 millimeters | 8.5 millimeters | 3 millimeters | – | – | – |
| CC1(C)S[C@@H]2[C@H](NC(=O)[C@H](N)c3ccc(O)cc3)C(=O)N2[C@H]1C(=O)O [Sample 10, Amoxicillin] | no activity | 3.5 millimeters | 8 millimeters | 7.5 millimeters | – | – | – | – |
| CN(C)[C@@H]1C(O)=C(C(N)=O)C(=O)[C@@]2(O)C(O)=C3C(=O)c4c(O)cccc4[C@@](C)(O)[C@H]3C[C@@H]12 [Sample 11, Tetracycline] | no activity | 5.5 millimeters | 7 millimeters | 7.5 millimeters | no activity | – | – | – |
| Cc1cc(NS(=O)(=O)c2ccc(N)cc2)no1 [Sample 12, Sulfamethoxazole] | no activity | 3 millimeters | 4 millimeters | 3.5 millimeters | 7.5 millimeters | CG | CG | CG |
| CN[C@H](CC(C)C)C(=O)N[C@H]1C(=O)N[C@@H](CC(N)=O)C(=O)N[C@H]2C(=O)N[C@H]3C(=O)N[C@H](C(=O)N[C@H](C(=O)O)c4cc(O)cc(O)c4-c4cc3ccc4O)[C@H](O)c3ccc(c(Cl)c3)Oc3cc2cc(c3O[C@@H]2O[C@H](CO)[C@@H](O)[C@H](O)[C@H]2O[C@H]2C[C@](C)(N)[C@H](O)[C@H](C)O2)Oc2ccc(cc2Cl)[C@H]1O [Sample 13, Vancomycin] | no activity | no activity | no activity | 5 millimeters | 5 millimeters | – | – | – |
| [Cl-].[Na+] [Sample 14, Sodium Chloride] | no activity | no activity | no activity | no activity | no activity | – | – | – |
| CC(=O)[O-].[Na+] [Sample 15, Sodium Acetate] | no activity | no activity | no activity | no activity | no activity | CG | NG | NG |
| NCC(=O)[O-].[Na+] [Sample 16, Sodium Glycinate] | no activity | no activity | no activity | no activity | no activity | – | – | – |
| O=S(=O)([O-])[O-].[Na+].[Na+] [Sample 17, Sodium Sulfate] | no activity | no activity | no activity | no activity | no activity | – | – | – |
| O=C([O-])CC(O)(CC(=O)[O-])C(=O)[O-].[Na+].[Na+].[Na+] [Sample 18, Sodium Citrate] | no activity | no activity | – | no activity | no activity | – | – | – |
| Zinc Gluconate [Sample 7] | no activity | 2 millimeters | 2.75 millimeters | 3 millimeters | 5 millimeters | – | – | – |
